Data as given in patent US6555323B2, “Assay for ABCA1” (Pfizer Inc., priority 2000, dated 2003).

How the values were obtained:
ABCA1 [1] = assay: Cellular cholesterol efflux to apo-AI from [3H]-cholesterol-labeled J774 macrophages; type: cell-based, mouse; settings: 16 hours pretreatment, J774 cells, apo-AI 20 μg/ml acceptor
Method: (§1) Stock cultures of J774 mouse macrophage cell line were grown in RPMI 1640 supplemented with 10% FBS and 50 μg/ml gentamicin at 37° C. in a humidified atmosphere containing 95% air and 5% CO2.
(§2) Cells were seeded in 96 wells (96-well plate, 0.15 ml/well) using 50,000 to 100,000 cells per well and grown in RPMI 1640-10% FBS and 0.5% gentamicin at37° C. for 72 hours to achieve 80-90% confluence. Radiolabeled cholesterol ([1,2-^3H] cholesterol, New England Nuclear) was added to the cells by adding a tracer amount (1-5 μCi/well in a final concentration of 0.1% ethanol) to FBS, which was then diluted to a final concentration of 1% in RPMI. An acyl-CoA cholesterol acyltransferase (ACAT) inhibitor (decanamide, 2-(hexylthio)-N-[6-methyl-2,4-bis(methylthio)-3-pyridinyl]-,(2S)-(9Cl) at 2 μg/ml) was added to the labeling medium. […] Cells were grown in the presence of the radiolabel for two additional days to obtain confluent monolayers. For experiments where cells are enriched in free cholesterol, acetylated LDL (100 μg of protein/ml) was included in the labeling mixture. Following the labeling period, cells were extensively washed using MEM-Hepes medium supplemented with 0.5% gentamicin, and incubated with either cpt-cAMP (positive control) at 0.3 mM or test compounds (varying concentrations may be used, although […] was selected for the present experiment) for an additional 16 hours.
At the end of the pretreatment period with cpt-cAMP or test compounds, cells were extensively washed with MEM-Hepes medium containing gentamicin and incubated in RPMI 1640 medium containing the cholesterol acceptor apo-AI at a final concentration of 20 μg/ml. Parallel monolayers of control or treated cells were also incubated with acceptor-free medium to determine background, non-acceptor mediated cholesterol efflux. Cellular cholesterol efflux was quantified by measuring the release of cellular [^3H]-cholesterol into the medium as a function of time. An aliquot of the incubation medium was filtered using a 0.45 micron Millipore multiscreen plate to remove any floating cells and then counted using a Wallac Microbeta Counter (Perkin-Elmer Life Sciences, Turku, Finland).
The amount of radiolabeled cholesterol released from the cells (% efflux) is determined by the amount of radioactivity present in the incubation medium divided by the radioactivity at time zero (T0). Radtio activty at time zero is calculated as the amount of radioactivity in the cells as determined by isopropanol extraction at the end of the treatment time.

ABCA1 mRNA = ABCA1 mRNA level in treated cells; type: cell-based, mouse
Method: In the case where the analysis of ABCA1 expression is required, total RNA may be isolated (e.g., by the method according to Chomczynski et al., N. Anal. Biochem., 162:156 (1987)) and ABCA1 mRNA levels determined by standard techniques such as Northern blotting, slot blot hybridization, or Ribonuclease protection assays using ABCA1 specific mRNA probes.
as §1, §2

[2] = target: T1, acyl-CoA cholesterol acyltransferase (ACAT) (Mus musculus, UniProt Q61263); assay: ACAT inhibition in labeling medium of J774 cells; type: cell-based; settings: 2 μg/ml in labeling medium
T1 construct: endogenous in cells; host or cells: J774 mouse macrophage cell line
T1 sequence (Q61263 1-540): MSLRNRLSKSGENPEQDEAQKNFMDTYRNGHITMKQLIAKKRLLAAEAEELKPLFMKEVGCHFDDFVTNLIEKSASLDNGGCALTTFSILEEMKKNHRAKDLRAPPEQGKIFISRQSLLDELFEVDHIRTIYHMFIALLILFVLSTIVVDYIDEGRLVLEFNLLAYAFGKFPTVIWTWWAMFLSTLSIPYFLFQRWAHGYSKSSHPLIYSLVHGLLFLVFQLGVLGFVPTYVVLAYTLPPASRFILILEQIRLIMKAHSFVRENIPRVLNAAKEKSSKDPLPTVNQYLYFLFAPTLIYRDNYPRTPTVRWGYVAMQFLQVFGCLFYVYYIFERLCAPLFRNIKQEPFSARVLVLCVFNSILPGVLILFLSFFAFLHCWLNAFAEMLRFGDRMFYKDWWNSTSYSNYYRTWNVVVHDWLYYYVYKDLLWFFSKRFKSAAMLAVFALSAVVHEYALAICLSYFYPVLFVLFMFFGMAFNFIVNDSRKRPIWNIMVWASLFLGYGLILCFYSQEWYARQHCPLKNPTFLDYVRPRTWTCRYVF
Method: as §2

ABCA1 [3] = assay: Cellular cholesterol efflux to apo-AI from [3H]-cholesterol-labeled J774 macrophages; type: cell-based, mouse; settings: 1 μM, 16 hours pretreatment, J774 cells, apo-AI 20 μg/ml acceptor

SMILES	% of control (cholesterol efflux) (ABCA1 [1]; 5 μM)	further results
COc1ccc(-c2cn3c(C)nnc3c(N3CCC(C)(N(C)c4cccc(F)c4)CC3)n2)cc1	94 % of control	–
COc1cc(-c2cn3c(C)nnc3c(N3CCC4(CC3)C(=O)NCN4c3ccccc3)n2)cc(OC)c1OC	95 % of control	–
COc1ccc(-c2cn3c(C)nnc3c(N3CCC4(CC3)C(=O)NCN4c3ccccc3)n2)cc1	101 % of control	–
Cc1nnc2n1-c1sccc1C(c1ccccc1)=NC2	102 % of control	–
Nc1ncnc2c1nc(Sc1ccc(Cl)cc1)n2[C@@H]1O[C@@H]2COP(=O)(O)O[C@H]2[C@H]1O [cpt-cAMP, reference compound]	–	% of control (cholesterol efflux) (ABCA1 [1]; 0.3 mM): 425 % of control; % of control mRNA (ABCA1 mRNA; 0.3 mM): 1600 % of control
CN(c1ccc(C(O)(C(F)(F)F)C(F)(F)F)cc1)S(=O)(=O)c1ccccc1[N+](=O)[O-]	185 % of control	% of control mRNA (ABCA1 mRNA; 5 μM): 160 % of control
Cc1nnc2c(N3CCC4(CC3)C(=O)NCN4c3ccccc3)nc(-c3ccc(O)cc3)cn12	106 % of control	–
Cc1nnc2c(N3CCC4(CC3)C(=O)NCN4c3ccccc3)nc(-c3ccc4c(c3)OCO4)cn12	82 % of control	–
Cc1nnc2c(N3CCC4(CC3)C(=O)NCN4c3ccccc3)nc(-c3ccccc3)cn12	109 % of control	–
O=S(=O)(c1ccccc1)N(CC(F)(F)F)c1ccc(C(O)(C(F)(F)F)C(F)(F)F)cc1	177 % of control	% of control mRNA (ABCA1 mRNA; 5 μM): 680 % of control
CCCCCCCC[C@H](SCCCCCC)C(=O)Nc1c(SC)cc(C)nc1SC [decanamide, 2-(hexylthio)-N-[6-methyl-2,4-bis(methylthio)-3-pyridinyl]-,(2S)-(9Cl)]	–	ACAT activity [2]: completely inhibited
CCCCC[C@H](O)/C=C/[C@H]1[C@H](O)CC(=O)[C@@H]1CCCCCCC(=O)O [Prostaglandin E1, reference compound]	–	% of control (cholesterol efflux) (ABCA1 [3]): 210 % of control; % of control mRNA (ABCA1 mRNA; 1 μM): 1420 % of control
COc1ccc(-c2cn3c(C)nnc3c(N3CCC4(CC3)C(=O)NCN4c3ccccc3)n2)cc1OC	111 % of control	–
